Laboratory results taken from ChEMBL document CHEMBL3832761, “MMV Pathogen Box Bioactivity Data” (2017).

How the values were obtained:
[1] = test system: Onchocerca gutturosa; experiment: AntiOnchocerca activity O. gutturosa adult males: Motility reduction at 12.5 uM (%); format: functional; parameters: scale not given: the % may be the effect or the level left
[2] = test system: Onchocerca volvulus; experiment: AntiOnchocerca activity O. volvulus L3 Molting assay: inhibition at 10 uM (%); format: functional
[3] = test system: Onchocerca gutturosa; experiment: AntiOnchocerca activity O. gutturosa adult males: MTT reduction at 12.5 uM (%); format: functional; parameters: scale not given: the % may be the effect or the level left
[4] = test system: Onchocerca ochengi; experiment: AntiOnchocerca activity O. ochengi adult females: final mean inhibition motility at 10 uM on Day 7 (%); format: functional
[5] = test system: HepG2; experiment: Cytotoxicity data HepG2 CC20 (uM); format: functional
[6] = test system: Onchocerca ochengi; experiment: AntiOnchocerca activity O. ochengi adult males: final mean inhibition motility at 10 uM on Day 5 (%); format: functional
[7] = HL60 CC50 (uM) Cytotoxicity; format: functional; conditions: HL-60
[8] = test system: Brugia pahangi; experiment: AntiBrugia pahangi activity Average inhibition motility at 10 uM (%); format: functional
[9] = test system: Brugia pahangi; experiment: AntiBrugia pahangi activity Average day 3 IC50 (uM); format: functional, organism-based; conditions: 72 h
[10] = test system: Onchocerca lienalis; experiment: AntiOnchocerca activity O. lienalis microfilariae Motility reduction (%); format: functional; parameters: concentration or dose not given beside the values
[11] = test system: Wolbachia; experiment: Anti-Wolbachia activity Reduction in Wolbachia infected cells at 10 uM (%); format: functional, cell-based; parameters: Activity: scale not given: the % may be the effect or the level left
[12] = test system: Onchocerca volvulus; experiment: AntiOnchocerca activity O. volvulus L3 Molting assay: IC50 (uM); format: functional, organism-based
[13] = test system: Brugia malayi; experiment: AntiBrugia malayi activity Effect on motility; format: functional, organism-based
[14] = test system: Toxoplasma gondii; experiment: AntiToxoplasma gondii activity data 2-day killing assay: inhibition at 10 uM (%) Experiment D; format: functional
[15] = test system: Toxoplasma gondii; experiment: AntiToxoplasma gondii activity data 2-day killing assay: IC50 (uM), Experiment G; format: functional, organism-based; conditions: Toxoplasma gondii, 48 h; read-out: IC50
[16] = test system: Toxoplasma gondii; experiment: AntiToxoplasma gondii activity data 2-day killing assay: inhibition at 10 uM (%) Experiment C; format: functional; conditions: 48 h
[17] = test system: CHO; experiment: CHO CC50 (uM) Cytotoxicity; format: functional; conditions: Cricetulus griseus
[18] = test system: Toxoplasma gondii; experiment: AntiToxoplasma gondii activity data 2-day killing assay: inhibition at 10 uM (%) Experiment E; format: functional
[19] = test system: Toxoplasma gondii; experiment: AntiToxoplasma gondii activity data 2-day killing assay: IC50 (uM), Experiment F; format: functional, organism-based; conditions: Toxoplasma gondii, 48 h; read-out: IC50
[20] = test system: Toxoplasma gondii; experiment: AntiToxoplasma gondii activity data Inhibition of plaque forming efficiency (%) Experiment A; format: functional; parameters: concentration or dose not given beside the values
[21] = test system: Onchocerca gutturosa; experiment: AntiOnchocerca activity O. gutturosa adult males: EC50 (uM); format: functional, organism-based
[22] = test system: Dengue virus; experiment: AntiDengue activity HCI DV3/A549 IC50 (uM); format: functional, organism-based
[23] = AntiChikungunya activity HCI CHIKV/Huh7 IC50 (uM); format: functional, Chikungunya virus
[24] = test system: A549; experiment: A549 CC50 (uM) Cytotoxicity; format: functional; conditions: Homo sapiens
[25] = test system: Dengue virus; experiment: AntiDengue activity HCI DV2/Huh7 IC50 (uM); format: functional, organism-based; conditions: Huh-7
[26] = HUH7 CC50 (uM) Cytotoxicity; format: functional; conditions: Huh-7
[27] = test system: Dengue virus; experiment: AntiDengue activity HCI DV4/A549 IC50 (uM); format: functional, organism-based
[28] = test system: HepG2; experiment: HepG2 CC50 (uM) Cytotoxicity; format: functional; conditions: Homo sapiens
[29] = test system: Dengue virus; experiment: AntiDengue activity HCI DV1/A549 IC50 (uM); format: functional, organism-based
[30] = test system: Dengue virus; experiment: AntiDengue activity HCI DV2/A549 IC50 (uM); format: functional, organism-based
[31] = test system: Ancylostoma ceylanicum; experiment: microbe, parasite or virus in culture
[32] = test system: Ancylostoma ceylanicum; experiment: microbe, parasite or virus in culture; remark: listed apart in the source
[33] = test system: Onchocerca lienalis; experiment: AntiOnchocerca activity O. lienalis microfilariae EC50 (uM); format: functional, organism-based

SMILES: O=C(Nc1nnc(S)s1)c1cc(Br)ccc1Cl
- Activity [1]: 29%
- Inhibition [2]: 36%
- Activity [3]: 0%
- Inhibition [4]: 4%
- CC20 [5]: >80 µM
- Inhibition [6]: 0%
- CC50 [7]: > 50 µM
- Inhibition [8]: 69%
- IC50 [9]: 9.4 µM
- Activity [10]: 27%

SMILES: COc1cccn2c(C(=O)N3CCCCC3)c(C(F)(F)F)nc12
- CC20 [5]: >80 µM
- IC50 ([11]; Wolbachia): 500 nM

SMILES: CCc1nc2ccc(C(=O)NCc3ccc4c(c3)OCO4)cn2c1N(C)Cc1cccs1
- CC20 [5]: 18.6 µM
- Activity [11]: 45%

SMILES: CCCCc1ccc(NC(=O)Nc2ccc(O[C@H]3CCCC[C@@H]3N(C)c3ccccc3)c(F)c2)cc1
- Activity [1]: 14.3%
- Inhibition [2]: 100%
- Activity [3]: 0%
- Inhibition [4]: 57%
- IC50 [12]: 1090 nM
- CC20 [5]: 5.77 µM
- Inhibition [6]: 61%
- CC50 [7]: > 6.2 µM
- Inhibition [8]: 61%
- IC50 [9]: 8.4 µM
- Activity [10]: 33.3%

SMILES: Cc1cc(C2=NOC(c3cc(Cl)c(F)c(Cl)c3)(C(F)(F)F)C2)ccc1C(=O)NCc1ccc2c(c1)C(C)(C)OB2O (configuration not stated)
- IC50 ([13]; Brugia malayi): 3.04 µM
- CC20 [5]: 10.9 µM

SMILES: Nc1ncnc2c1c(-c1cnc3ccccc3c1)nn2CC1CCNCC1
- Inhibition [14]: 72.3%
- IC50 [15]: 7.55 µM
- inhibition at 10 µM [16]: 48.8%
- CC50 [17]: > 50 µM
- Inhibition [18]: 92.8%
- IC50 [19]: 6.77 µM
- Inhibition [20]: ~60%

SMILES: COC(=O)C1=C(C)NC(C)=C(C(=O)OC(C)C)C1c1cccc2nonc12 (configuration not stated) [ISRADIPINE]
- Activity [1]: 100%
- Activity [3]: 79%
- CC20 [5]: 66 µM
- EC50 [21]: 890 nM
- Activity [10]: 53%

SMILES: CC(=O)N(CCN(C(=O)c1ccc(F)cc1)c1ccccc1)c1ccccc1
- Activity [1]: 42.9%
- Inhibition [2]: 100%
- Activity [3]: 0%
- Inhibition [4]: 4%
- IC50 [12]: 3130 nM
- CC20 [5]: 39 µM
- Inhibition [6]: 0%
- CC50 [7]: > 50 µM
- Inhibition [8]: 4%
- Activity [10]: 13.3%

SMILES: CC(C)(C)OC(=O)N1CCN(c2nccc(-c3ccc(-c4ccc(Cl)cc4)s3)n2)CC1
- IC50 [22]: 2000 nM
- IC50 [23]: 10 µM
- CC50 [24]: > 50 µM
- IC50 [25]: > 50 µM
- CC50 [26]: > 50 µM
- IC50 [27]: 3000 nM
- CC50 [28]: > 50 µM
- IC50 [29]: 7 µM
- IC50 [30]: 7 µM

SMILES: OC[C@H]1O[C@@H](n2c3ccc(Cl)cc3c3c(-c4cc5ccccc5o4)ncnc32)C(O)[C@H]1O (some centres not stated)
- IC50 [22]: 3000 nM
- IC50 [23]: > 50 µM
- CC50 [24]: > 50 µM
- IC50 [25]: > 50 µM
- CC50 [26]: 1 µM
- IC50 [27]: 3000 nM
- CC50 [28]: 10 µM
- IC50 [29]: 5 µM
- IC50 [30]: 7 µM

SMILES: CCS(=O)(=O)N(Cc1ccco1)Cc1cc2ccc(C)cc2nc1O
- CC20 [5]: >80 µM
- Activity [11]: 52%

SMILES: CN1CCCC1CCO[C@](C)(c1ccccc1)c1ccc(Cl)cc1 (some centres not stated)
- inhibition at 200 µM [31]: 76%
- CC20 [5]: 9.28 µM
- inhibition at 50 µM [32]: 47%

SMILES: COc1ccc(N(CCc2cccc(C)n2)C(=O)C2CCCCC2)cc1
- Activity [1]: 42.9%
- Inhibition [2]: 100%
- Activity [3]: 35.7%
- Inhibition [4]: 4%
- IC50 [12]: 1340 nM
- CC20 [5]: >80 µM
- Inhibition [6]: 7%
- CC50 [7]: > 50 µM
- Inhibition [8]: 11%
- Activity [10]: 13%

SMILES: Oc1c(I)cc(I)c2cccnc12 [IODOQUINOL]
- Activity [1]: 100%
- Activity [3]: 88%
- CC20 [5]: 2.53 µM
- EC50 [21]: 460 nM
- Activity [10]: 93.3%

SMILES: Cc1[nH]c2cc(F)cc(F)c2c(=O)c1-c1ccc(Oc2ccc(OC(F)(F)F)cc2)cc1
- Activity [1]: 58.9%
- Activity [3]: 56.9%
- EC50 [33]: 1370 nM
- CC20 [5]: >80 µM
- EC50 [21]: 2910 nM
- Activity [10]: 100%

SMILES: COC(=O)c1ccc(F)cc1NS(=O)(=O)c1cccc(-c2cnn(Cc3ccccc3)c2)c1
- IC50 [22]: > 50000 nM
- IC50 [23]: 10 µM
- CC50 [24]: > 50 µM
- IC50 [25]: 10 µM
- CC50 [26]: 20 µM
- IC50 [27]: > 50000 nM
- CC50 [28]: 10 µM
- IC50 [29]: 5 µM
- IC50 [30]: 6 µM

SMILES: O=C1[C@@H](Oc2ccccc2)[C@@H](c2ccc(Cl)cc2)N1CCn1cnc2c(NCc3ccccc3)ncnc21
- IC50 [22]: 4000 nM
- IC50 [23]: 6 µM
- CC50 [24]: 40 µM
- IC50 [25]: 3 µM
- CC50 [26]: 10 µM
- IC50 [27]: 2000 nM
- CC50 [28]: 3 µM
- IC50 [29]: 3 µM
- IC50 [30]: 6 µM

SMILES: CC1(C)OB(O)c2ccc(C3=NOC(c4cc(Cl)c(F)c(Cl)c4)(C(F)(F)F)C3)cc21 (configuration not stated)
- Inhibition [13]: 50%
- CC20 [5]: 15.4 µM

SMILES: CC(C)(C)C(=O)N(CCCCCCN1C[C@H](O)[C@@H](O)[C@H](O)[C@H]1CO)C1CCCCCC1
- IC50 [22]: 80 nM
- IC50 [23]: > 50 µM
- CC50 [24]: > 50 µM
- IC50 [25]: 2 µM
- CC50 [26]: > 50 µM
- IC50 [27]: 200 nM
- CC50 [28]: > 50 µM
- IC50 [29]: 0.07 µM
- IC50 [30]: 0.6 µM
